Measured values: patent publication US20160038468A1 (priority 2013, published 2016)
Values after ≈ are worked out from the molar mass of the structure shown. Read-outs that look alike come from different tables or passages of the source.

Assays:
Assay type in all cases: cell-based
Gardnerella vaginalis = assay: Agar dilution MIC (CLSI), Gardnerella vaginalis vaginal isolates; settings: for Number of strains with indicated MIC: 100 samples
Mobiluncus all species = assay: Agar dilution MIC (CLSI), Mobiluncus all species
M. curtisii = assay: Agar dilution MIC (CLSI), M. curtisii vaginal isolates; settings: 14 samples
Prevotella amnii = assay: Agar dilution MIC (CLSI), Prevotella amnii vaginal isolates; settings: for MIC: read-out: Minimal Inhibitory Concentration (MIC)
Finegoldia magna = assay: Agar dilution MIC (CLSI), Finegoldia magna vaginal isolates; settings: for MIC: Finegoldia magna, read-out: Minimal Inhibitory Concentration (MIC)
[1] = Gardnerella vaginalis, # tested 107
[2] = number (%) of isolates, # tested 40

SMILES: Cc1ncc([N+](=O)[O-])n1CCO [Metronidazole]
- activity against G vaginalis (Gardnerella vaginalis): limited activity
- MIC50 (Gardnerella vaginalis; [1]): 64 µg/mL (≈ 374 µM)
- MIC90 (Gardnerella vaginalis; [1]): > 128 µg/mL
- Number of strains with indicated MIC (Gardnerella vaginalis; MIC 8 μg/ml): 12
- Number of strains with indicated MIC (Gardnerella vaginalis; MIC 16 μg/ml): 16
- Number of strains with indicated MIC (Gardnerella vaginalis; MIC 32 μg/ml): 14
- Number of strains with indicated MIC (Gardnerella vaginalis; MIC 64 μg/ml): 15
- Number of strains with indicated MIC (Gardnerella vaginalis; MIC >[…]): 34
- Number of strains with indicated MIC (Gardnerella vaginalis; MIC […]): 6
- activity on Mobiluncus species (Mobiluncus all species): substantially less active
- MIC50 (Mobiluncus all species; # tested 40): 8 µg/mL (≈ 46.7 µM)
- MIC90 (Mobiluncus all species; # tested 40): > 128 µg/mL
- Intermediate (Mobiluncus all species; [2]): 1 (3) μg/ml
- Susceptible (Mobiluncus all species; [2]): 22 (55) μg/ml
- Resistant (Mobiluncus all species; number (%) of isolates, # tested 40, resistance: rifaximin >32, metronidazole >32, clindamycin >8 μg/ml): 17 (42) μg/ml
- Number of strains with indicated MIC (M. curtisii; MIC 64 μg/ml): 3
- Number of strains with indicated MIC (M. curtisii; MIC >[…]): 11
- MIC Range (Prevotella amnii; # tested 33): 0.25 to 2 µg/mL
- Number of strains with indicated MIC (Prevotella amnii; MIC […], 33 samples): 1
- MIC (Prevotella amnii; Prevotella amnii, isolate 601203 4): 1 µg/mL (≈ 5.84 µM)
- MIC (Prevotella amnii; Prevotella amnii, isolate 601256 11): 1 µg/mL (≈ 5.84 µM)
- MIC (Prevotella amnii; Prevotella amnii, isolate 601258 25): 0.5 µg/mL (≈ 2.92 µM)
- MIC (Prevotella amnii; Prevotella amnii, isolate 601261 E): 1 µg/mL (≈ 5.84 µM)
- MIC (Prevotella amnii; Prevotella amnii, isolate 601266 20): 0.5 µg/mL (≈ 2.92 µM)
- MIC (Prevotella amnii; Prevotella amnii, isolate 601278 10): 1 µg/mL (≈ 5.84 µM)
- MIC (Prevotella amnii; Prevotella amnii, isolate 601287 HH): 0.5 µg/mL (≈ 2.92 µM)
- MIC (Prevotella amnii; Prevotella amnii, isolate 601291 41): 1 µg/mL (≈ 5.84 µM)
- MIC (Prevotella amnii; Prevotella amnii, isolate 601293 29): 1 µg/mL (≈ 5.84 µM)
- MIC (Prevotella amnii; Prevotella amnii, isolate 601305 A): 2 µg/mL (≈ 11.7 µM)
- MIC (Prevotella amnii; Prevotella amnii, isolate 601311 K): 0.5 µg/mL (≈ 2.92 µM)
- MIC (Prevotella amnii; Prevotella amnii, isolate 601314 19): 2 µg/mL (≈ 11.7 µM)
- MIC (Prevotella amnii; Prevotella amnii, isolate 601318 G): 1 µg/mL (≈ 5.84 µM)
- MIC (Prevotella amnii; Prevotella amnii, isolate 601336 33): 1 µg/mL (≈ 5.84 µM)
- MIC (Prevotella amnii; Prevotella amnii, isolate 601340 37): 2 µg/mL (≈ 11.7 µM)
- MIC (Prevotella amnii; Prevotella amnii, isolate 601341 H): 1 µg/mL (≈ 5.84 µM)
- MIC (Prevotella amnii; Prevotella amnii, isolate 601350 A): 0.5 µg/mL (≈ 2.92 µM)
- MIC (Prevotella amnii; Prevotella amnii, isolate 601365 6): 0.25 µg/mL (≈ 1.46 µM)
- MIC (Prevotella amnii; Prevotella amnii, isolate 601368 24): 0.5 µg/mL (≈ 2.92 µM)
- MIC (Prevotella amnii; Prevotella amnii, isolate 601369 13): 2 µg/mL (≈ 11.7 µM)
- MIC (Prevotella amnii; Prevotella amnii, isolate 601375 L): 1 µg/mL (≈ 5.84 µM)
- MIC (Prevotella amnii; Prevotella amnii, isolate 601377 9): 1 µg/mL (≈ 5.84 µM)
- MIC (Prevotella amnii; Prevotella amnii, isolate 601379 24): 1 µg/mL (≈ 5.84 µM)
- MIC (Prevotella amnii; Prevotella amnii, isolate 601388 G): 1 µg/mL (≈ 5.84 µM)
- MIC (Prevotella amnii; Prevotella amnii, isolate 601399 10): 1 µg/mL (≈ 5.84 µM)
- MIC (Prevotella amnii; Prevotella amnii, isolate 601405 A): 1 µg/mL (≈ 5.84 µM)
- MIC (Prevotella amnii; Prevotella amnii, isolate 601411 L): 1 µg/mL (≈ 5.84 µM)
- MIC (Prevotella amnii; Prevotella amnii, isolate 601413 10): 1 µg/mL (≈ 5.84 µM)
- MIC (Prevotella amnii; Prevotella amnii, isolate 601418 27): 1 µg/mL (≈ 5.84 µM)
- MIC (Prevotella amnii; Prevotella amnii, isolate 601426 A): 1 µg/mL (≈ 5.84 µM)
- MIC (Prevotella amnii; Prevotella amnii, isolate 601430 14): 1 µg/mL (≈ 5.84 µM)
- MIC (Prevotella amnii; Prevotella amnii, isolate 601434 13): 0.5 µg/mL (≈ 2.92 µM)
- MIC (Prevotella amnii; Prevotella amnii, isolate 601458 13): 1 µg/mL (≈ 5.84 µM)
- MIC50 (Prevotella amnii; Prevotella amnii, # tested 33): 1 µg/mL (≈ 5.84 µM)
- MIC90 (Prevotella amnii; Prevotella amnii, # tested 33): 2 µg/mL (≈ 11.7 µM)
- MIC Range (Finegoldia magna; # tested 20): 0.5 to 4 µg/mL
- MIC (Finegoldia magna; isolate 301303V D): 0.5 µg/mL (≈ 2.92 µM)
- MIC (Finegoldia magna; isolate 601205V 39): 4 µg/mL (≈ 23.4 µM)
- MIC (Finegoldia magna; isolate 601214V F): 2 µg/mL (≈ 11.7 µM)
- MIC (Finegoldia magna; isolate 601275V c): 4 µg/mL (≈ 23.4 µM)
- MIC (Finegoldia magna; isolate 601276V 23): 2 µg/mL (≈ 11.7 µM)
- MIC (Finegoldia magna; isolate 601283V 14): 2 µg/mL (≈ 11.7 µM)
- MIC (Finegoldia magna; isolate 601293V 27): 2 µg/mL (≈ 11.7 µM)
- MIC (Finegoldia magna; isolate 601295V 25): 1 µg/mL (≈ 5.84 µM)
- MIC (Finegoldia magna; isolate 601298V 30): 2 µg/mL (≈ 11.7 µM)
- MIC (Finegoldia magna; isolate 601308V 24): 2 µg/mL (≈ 11.7 µM)
- MIC (Finegoldia magna; isolate 601315V 17): 4 µg/mL (≈ 23.4 µM)
- MIC (Finegoldia magna; isolate 601315V 17A): 4 µg/mL (≈ 23.4 µM)
- MIC (Finegoldia magna; isolate 601320V 24): 4 µg/mL (≈ 23.4 µM)
- MIC (Finegoldia magna; isolate 601323V K): 0.5 µg/mL (≈ 2.92 µM)
- MIC (Finegoldia magna; isolate 601330V c): 4 µg/mL (≈ 23.4 µM)
- MIC (Finegoldia magna; isolate 601335V c1): 1 µg/mL (≈ 5.84 µM)
- MIC (Finegoldia magna; isolate 601340V 27): 4 µg/mL (≈ 23.4 µM)
- MIC (Finegoldia magna; isolate 601359V c): 4 µg/mL (≈ 23.4 µM)
- MIC (Finegoldia magna; isolate 601363V 6): 1 µg/mL (≈ 5.84 µM)
- MIC (Finegoldia magna; isolate 601367V c): 4 µg/mL (≈ 23.4 µM)
